Results published in patent US20230085307A1, “PYRIDAZINONE COMPOUND AND HERBICIDE” (NISSAN CHEMICAL CORPORATION, priority 2019, published 2023).

Key:
barnyard grass [1] = experiment: Test Example 4: herbicidal effect by soil treatment (Table 19, symbol H); assay type: in vivo, barnyard grass (Echinochloa crus-galli); conditions: amount of applied herbicide 320 g/ha
How it was run: (§1)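 Three weeks of greenhouse growth at 25° C. to 30° C. followed a uniform surface spray of water-diluted emulsion at a predetermined herbicide amount. Seeds had been sown beforehand under about 1.5 cm of sterilized diluvial soil. Grading followed criteria set out in an earlier test.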

barnyard grass [2] = experiment: Test Example 5: herbicidal effect by foliage application, plastic box (Table 20, symbol H); assay type: in vivo, barnyard grass (Echinochloa crus-galli); conditions: foliage application, 320 g/ha, three weeks after application
How it was run: (§2)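 Plants sown in sterilized diluvial soil and grown 14 days in a greenhouse at 25° C to 30° C, then sprayed on the foliage with the compound's emulsion diluted in water to a predetermined herbicide amount. Injury to weeds and crops scored three weeks after application on a visual rating scale.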

green foxtail [3] = experiment: Test Example 4: herbicidal effect by soil treatment (Table 19, symbol G); assay type: in vivo, green foxtail (Setaria viridis); conditions: amount of applied herbicide 320 g/ha
How it was run: as §1

blackgrass [4] = experiment: Test Example 4: herbicidal effect by soil treatment (Table 19, symbol J); assay type: in vivo, blackgrass (Alopecurus myosuroides); conditions: amount of applied herbicide 320 g/ha
How it was run: as §1

false cleavers [5] = experiment: Test Example 5: herbicidal effect by foliage application, plastic box (Table 20, symbol Q); assay type: in vivo, false cleavers (Galium spurium); conditions: foliage application, 320 g/ha, three weeks after application
How it was run: as §2

wild oat [6] = experiment: Test Example 5: herbicidal effect by foliage application, plastic box (Table 20, symbol I); assay type: in vivo, wild oat (Avena fatua); conditions: foliage application, 320 g/ha, three weeks after application
How it was run: as §2

redroot pigweed [7] = experiment: Test Example 4: herbicidal effect by soil treatment (Table 19, symbol N); assay type: in vivo, redroot pigweed (Amaranthus retroflexus); conditions: amount of applied herbicide 320 g/ha
How it was run: as §1

persian speedwell [8] = experiment: Test Example 5: herbicidal effect by foliage application, plastic box (Table 20, symbol R); assay type: in vivo, Persian speedwell (Veronica persica); conditions: foliage application, 320 g/ha, three weeks after application
How it was run: as §2

chickweed [9] = experiment: Test Example 4: herbicidal effect by soil treatment (Table 19, symbol P); assay type: in vivo, common chickweed (Stellaria media); conditions: amount of applied herbicide 320 g/ha
How it was run: as §1

redroot pigweed [10] = experiment: Test Example 5: herbicidal effect by foliage application, plastic box (Table 20, symbol N); assay type: in vivo, redroot pigweed (Amaranthus retroflexus); conditions: foliage application, 320 g/ha, three weeks after application
How it was run: as §2

velvetleaf [11] = experiment: Test Example 4: herbicidal effect by soil treatment (Table 19, symbol M); assay type: in vivo, velvetleaf (Abutilon theophrasti); conditions: amount of applied herbicide 320 g/ha
How it was run: as §1

Italian ryegrass [12] = experiment: Test Example 5: herbicidal effect by foliage application, plastic box (Table 20, symbol K); assay type: in vivo, Italian ryegrass (Lolium multiflorum); conditions: foliage application, 320 g/ha, three weeks after application
How it was run: as §2

wild oat [13] = experiment: Test Example 4: herbicidal effect by soil treatment (Table 19, symbol I); assay type: in vivo, wild oat (Avena fatua); conditions: amount of applied herbicide 320 g/ha
How it was run: as §1

green foxtail [14] = experiment: Test Example 5: herbicidal effect by foliage application, plastic box (Table 20, symbol G); assay type: in vivo, green foxtail (Setaria viridis); conditions: foliage application, 320 g/ha, three weeks after application
How it was run: as §2

persian speedwell [15] = experiment: Test Example 4: herbicidal effect by soil treatment (Table 19, symbol R); assay type: in vivo, Persian speedwell (Veronica persica); conditions: amount of applied herbicide 320 g/ha
How it was run: as §1

windgrass [16] = experiment: Test Example 5: herbicidal effect by foliage application, plastic box (Table 20, symbol L); assay type: in vivo, windgrass (Apera spica-venti); conditions: foliage application, 320 g/ha, three weeks after application
How it was run: as §2

Italian ryegrass [17] = experiment: Test Example 4: herbicidal effect by soil treatment (Table 19, symbol K); assay type: in vivo, Italian ryegrass (Lolium multiflorum); conditions: amount of applied herbicide 320 g/ha
How it was run: as §1

blackgrass [18] = experiment: Test Example 5: herbicidal effect by foliage application, plastic box (Table 20, symbol J); assay type: in vivo, blackgrass (Alopecurus myosuroides); conditions: foliage application, 320 g/ha, three weeks after application
How it was run: as §2

Chinese sprangletop = experiment: Test Example 3: herbicidal effect by foliage application, Wagner pot (Table 18, symbol D); assay type: in vivo, chinese sprangletop (Leptochloa chinensis); conditions: 320 g/ha
How it was run: (§3)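 Plants were sown in alluvial soil held under 0.1–0.5 cm standing water and grown 14 days in a greenhouse at 25–30 °C. An emulsifiable formulation, water-diluted to the set dose, was then sprayed onto the foliage, and effects were scored three weeks later using previously defined criteria.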

barnyard grass [19] = experiment: Test Example 3: herbicidal effect by foliage application, Wagner pot (Table 18, symbol H); assay type: in vivo, barnyard grass (Echinochloa crus-galli); conditions: 320 g/ha
How it was run: as §3

rice flat sedge = experiment: Test Example 3: herbicidal effect by foliage application, Wagner pot (Table 18, symbol E); assay type: in vivo, rice flat sedge (Cyperus iria); conditions: 320 g/ha
How it was run: as §3

lambsquarters [20] = experiment: Test Example 5: herbicidal effect by foliage application, plastic box (Table 20, symbol O); assay type: in vivo, lambsquarters (Chenopodium album); conditions: foliage application, 320 g/ha, three weeks after application
How it was run: as §2

windgrass [21] = experiment: Test Example 4: herbicidal effect by soil treatment (Table 19, symbol L); assay type: in vivo, windgrass (Apera spica-venti); conditions: amount of applied herbicide 320 g/ha
How it was run: as §1

velvetleaf [22] = experiment: Test Example 5: herbicidal effect by foliage application, plastic box (Table 20, symbol M); assay type: in vivo, velvetleaf (Abutilon theophrasti); conditions: foliage application, 320 g/ha, three weeks after application
How it was run: as §2

southern crabgrass [23] = experiment: Test Example 5: herbicidal effect by foliage application, plastic box (Table 20, symbol F); assay type: in vivo, southern crabgrass (Digitaria ciliaris); conditions: foliage application, 320 g/ha, three weeks after application
How it was run: as §2

chickweed [24] = experiment: Test Example 5: herbicidal effect by foliage application, plastic box (Table 20, symbol P); assay type: in vivo, common chickweed (Stellaria media); conditions: foliage application, 320 g/ha, three weeks after application
How it was run: as §2

lambsquarters [25] = experiment: Test Example 4: herbicidal effect by soil treatment (Table 19, symbol O); assay type: in vivo, lambsquarters (Chenopodium album); conditions: amount of applied herbicide 320 g/ha
How it was run: as §1

southern crabgrass [26] = experiment: Test Example 4: herbicidal effect by soil treatment (Table 19, symbol F); assay type: in vivo, southern crabgrass (Digitaria ciliaris); conditions: amount of applied herbicide 320 g/ha
How it was run: as §1

false cleavers [27] = experiment: Test Example 4: herbicidal effect by soil treatment (Table 19, symbol Q); assay type: in vivo, false cleavers (Galium spurium); conditions: amount of applied herbicide 320 g/ha
How it was run: as §1

Compound | herbicidal effect rating, H: barnyard grass (barnyard grass [1]) | herbicidal effect grade, H: barnyard grass (barnyard grass [2]) | herbicidal effect rating, G: green foxtail (green foxtail [3]) | herbicidal effect rating, J: blackgrass (blackgrass [4]) | herbicidal effect grade, Q: false cleavers (false cleavers [5]) | herbicidal effect grade, I: wild oat (wild oat [6]) | herbicidal effect rating, N: redroot pigweed (redroot pigweed [7]) | herbicidal effect grade, R: persian speedwell (persian speedwell [8]) | herbicidal effect rating, P: chickweed (chickweed [9]) | herbicidal effect grade, N: redroot pigweed (redroot pigweed [10]) | herbicidal effect rating, M: velvetleaf (velvetleaf [11]) | herbicidal effect grade, K: Italian ryegrass (Italian ryegrass [12]) | herbicidal effect rating, I: wild oat (wild oat [13]) | herbicidal effect grade, G: green foxtail (green foxtail [14]) | herbicidal effect rating, R: persian speedwell (persian speedwell [15]) | herbicidal effect grade, L: windgrass (windgrass [16]) | herbicidal effect rating, K: Italian ryegrass (Italian ryegrass [17]) | herbicidal effect grade, J: blackgrass (blackgrass [18]) | herbicidal effect grade, O: lambsquarters (lambsquarters [20]) | herbicidal effect rating, L: windgrass (windgrass [21]) | also measured
CCc1ccccc1-c1sc2ccccc2c1-c1c(O)c(C)nn(C)c1=O [1-003] | 0 (Herbicidal rate of 5% or less (almost no effect)) | 3 (Herbicidal rate of 40% or more and less than 70%) | 4 (Herbicidal rate of 70% or more and less than 90%) | 0 (Herbicidal rate of 5% or less (almost no effect)) | 5 (Herbicidal rate of 90% or more (almost completely withered)) | 3 (Herbicidal rate of 40% or more and less than 70%) | 2 (Herbicidal rate of 20% or more and less than 40%) | 5 (Herbicidal rate of 90% or more (almost completely withered)) | 4 (Herbicidal rate of 70% or more and less than 90%) | 3 (Herbicidal rate of 40% or more and less than 70%) | 0 (Herbicidal rate of 5% or less (almost no effect)) | 3 (Herbicidal rate of 40% or more and less than 70%) | 0 (Herbicidal rate of 5% or less (almost no effect)) | 5 (Herbicidal rate of 90% or more (almost completely withered)) | 2 (Herbicidal rate of 20% or more and less than 40%) | 5 (Herbicidal rate of 90% or more (almost completely withered)) | 0 (Herbicidal rate of 5% or less (almost no effect)) | 3 (Herbicidal rate of 40% or more and less than 70%) | 0 (Herbicidal rate of 5% or less (almost no effect)) | 0 (Herbicidal rate of 5% or less (almost no effect)) | herbicidal effect on D (Chinese sprangletop), rating 0-5 (Chinese sprangletop): 3 (Herbicidal rate of 40% or more and less than 70%); herbicidal effect on H (barnyard grass), rating 0-5 (barnyard grass [19]): 1 (Herbicidal rate of 5% or more and less than 20%); herbicidal effect on E (rice flat sedge), rating 0-5 (rice flat sedge): 3 (Herbicidal rate of 40% or more and less than 70%); herbicidal effect grade, M: velvetleaf (velvetleaf [22]): 4 (Herbicidal rate of 70% or more and less than 90%); herbicidal effect grade, F: southern crabgrass (southern crabgrass [23]): 4 (Herbicidal rate of 70% or more and less than 90%); herbicidal effect grade, P: chickweed (chickweed [24]): 5 (Herbicidal rate of 90% or more (almost completely withered)); herbicidal effect rating, O: lambsquarters (lambsquarters [25]): 3 (Herbicidal rate of 40% or more and less than 70%); herbicidal effect rating, F: southern crabgrass (southern crabgrass [26]): 3 (Herbicidal rate of 40% or more and less than 70%); herbicidal effect rating, Q: false cleavers (false cleavers [27]): 3 (Herbicidal rate of 40% or more and less than 70%)
CCCC(=O)Oc1c(C)nn(C)c(=O)c1-c1c(-c2ccsc2)sc2ccccc12 [1-084] | 1 (Herbicidal rate of 5% or more and less than 20%) | 0 (Herbicidal rate of 5% or less (almost no effect)) | 2 (Herbicidal rate of 20% or more and less than 40%) | 0 (Herbicidal rate of 5% or less (almost no effect)) | 0 (Herbicidal rate of 5% or less (almost no effect)) | 0 (Herbicidal rate of 5% or less (almost no effect)) | 0 (Herbicidal rate of 5% or less (almost no effect)) | 0 (Herbicidal rate of 5% or less (almost no effect)) | 1 (Herbicidal rate of 5% or more and less than 20%) | 0 (Herbicidal rate of 5% or less (almost no effect)) | 0 (Herbicidal rate of 5% or less (almost no effect)) | 1 (Herbicidal rate of 5% or more and less than 20%) | 0 (Herbicidal rate of 5% or less (almost no effect)) | 0 (Herbicidal rate of 5% or less (almost no effect)) | 0 (Herbicidal rate of 5% or less (almost no effect)) | 0 (Herbicidal rate of 5% or less (almost no effect)) | 0 (Herbicidal rate of 5% or less (almost no effect)) | 0 (Herbicidal rate of 5% or less (almost no effect)) | 0 (Herbicidal rate of 5% or less (almost no effect)) | 0 (Herbicidal rate of 5% or less (almost no effect)) | herbicidal effect grade, M: velvetleaf (velvetleaf [22]): 0 (Herbicidal rate of 5% or less (almost no effect)); herbicidal effect grade, F: southern crabgrass (southern crabgrass [23]): 0 (Herbicidal rate of 5% or less (almost no effect)); herbicidal effect grade, P: chickweed (chickweed [24]): 5 (Herbicidal rate of 90% or more (almost completely withered)); herbicidal effect rating, O: lambsquarters (lambsquarters [25]): 0 (Herbicidal rate of 5% or less (almost no effect)); herbicidal effect rating, F: southern crabgrass (southern crabgrass [26]): 1 (Herbicidal rate of 5% or more and less than 20%); herbicidal effect rating, Q: false cleavers (false cleavers [27]): 0 (Herbicidal rate of 5% or less (almost no effect))
